In patent US9193756B2, “Adrenomedullin production enhancer” (National University Corporation ASAHIKAWA MEDICAL COLLEGE, priority 2008, dated 2015):

Assays:
distal colon blood flow [1] = experiment: Blood flow-increasing effects of components in crude drugs (1): hydroxysanshool, ginsenosides; type: in vivo, rat; details: for Rate of increase in VC: into the colon, mg/kg: H-sanshool 0.3, ginseng 30, ginsenoside Rb1 1, ginsenoside Rg1 1, mean
Description: Male SD rats (8 to 10 weeks of age, body weight 240 to 360 g) were used (n=2 to 6). Hydroxy-β-sanshool, ginsenoside Rb1, or ginsenoside Rg1 was added to a 1% aqueous solution of Tween 80 to obtain concentrations of 0.06 mg/mL, 0.2 mg/mL, and 0.2 mg/mL, respectively, and the resulting solutions were used as the respective test specimens for administration of individual crude drug components. Furthermore, test specimens for the administration of hydroxysanshool with a ginseng extract, ginsenoside Rb1, or ginsenoside Rg1 in combination were prepared by adding, to a 1% aqueous solution of Tween 80, hydroxysanshool at a concentration of 0.06 mg/mL, and a powdered ginseng extract, ginsenoside Rb1, or ginsenoside Rg1 at a concentration of 6 mg/mL, 0.2 mg/mL, or 0.2 mg/mL, respectively. After preliminarily placing an 18 G Surflo indwelling needle inserted through the caecum, 5 mL/kg portions of test specimens which had been kept warm at 37° C. were administered into the colon 0.5 to 1 hour later, by which time baseline blood flow had stabilized. A control group was administered a 1% aqueous solution of Tween 80.
A polyethylene tube with an inner diameter of 0.8 mm was inserted through the left common carotid artery of an anesthetized rat, and the tip was left indwelling in the left ventricle. A tracheal cannula was placed indwelling in the trachea and connected to a respirator (SN-480-7); artificial respiration was then performed at a frequency of 60 RPM. Body temperature was maintained at 37±0.5° C. by a temperature controller (NS-TC10). […] The results of measurement are expressed as the mean value±standard error (S.E.M.). Comparison of effects was performed by one-way analysis of variance (ANOVA), followed by the Scheffe multiple comparison test. A risk rate of 5% or less was employed as the significance level.

distal colon blood flow [2] = experiment: Blood flow-increasing effects of components in crude drugs (2): 6-shogaol; type: in vivo, rat; details: for Rate of increase in VC: into the colon, mg/kg: 6-shogaol 2, ginsenoside Rb1 1
Description: Male SD rats (8 to 10 weeks of age) were used. 6-Shogaol was added to a 1% aqueous solution of Tween 80 to obtain a concentration of 0.4 mg/mL, and the resulting solution was used as a test specimen. Furthermore, ginsenoside Rb1 and 6-shogaol were added to a 1% aqueous solution of Tween 80 at concentrations of 0.2 mg/mL and 0.4 mg/mL, respectively, to prepare test specimens. After preliminarily placing an 18 G Surflo indwelling needle inserted through the caecum, 5 mL/kg portions of test specimens which had been kept warm at 37° C. were administered into the colon 0.5 to 1 hour later, by which time baseline blood flow had stabilized. A control group was administered 1% aqueous solution of Tween 80.
A polyethylene tube with an inner diameter of 0.8 mm was inserted through the left common carotid artery of an anesthetized rat, and the tip was left indwelling in the left ventricle. A tracheal cannula was placed indwelling in the trachea and connected to a respirator (SN-480-7); artificial respiration was then performed at a frequency of 60 RPM. Body temperature was maintained at 37±0.5° C. by a temperature controller (NS-TC10).

C/C=C/C=C/C=C/CC/C=C/C(=O)NCC(C)(C)O [H-sanshool, Hydroxy-β-sanshool]
Rate of increase in VC (distal colon blood flow [1]; 15 min): 3.89%
Rate of increase in VC (distal colon blood flow [1]; 30 min): 5.79%
Rate of increase in VC (distal colon blood flow [1]; 45 min): 2.09%
Rate of increase in VC (distal colon blood flow [1]; 60 min): 9.46%
Rate of increase in VC (distal colon blood flow [1]; 75 min): 8.58%
Rate of increase in VC (distal colon blood flow [1]; 90 min): 4.19%
Blood flow / VC increase (in words) (distal colon blood flow [1]; Example 4, administration into the colon): did not increase blood flow

CC(C)=CCC[C@](C)(O[C@@H]1O[C@H](CO)[C@@H](O)[C@H](O)[C@H]1O)[C@H]1CC[C@]2(C)[C@@H]1[C@H](O)C[C@@H]1[C@@]3(C)CC[C@H](O)C(C)(C)[C@@H]3[C@@H](O[C@@H]3O[C@H](CO)[C@@H](O)[C@H](O)[C@H]3O)C[C@]12C [Ginsenoside Rg1, ginsenoside Rg1]
Rate of increase in VC (distal colon blood flow [1]; 15 min): −10.83%
Rate of increase in VC (distal colon blood flow [1]; 30 min): 5.84%
Rate of increase in VC (distal colon blood flow [1]; 45 min): 16.29%
Rate of increase in VC (distal colon blood flow [1]; 60 min): 10.92%
Rate of increase in VC (distal colon blood flow [1]; 75 min): 12.25%
Rate of increase in VC (distal colon blood flow [1]; 90 min): 18.11%

CCCCC/C=C/C(=O)CCc1ccc(O)c(OC)c1 [6-Shogaol, 6-shogaol]
Rate of increase in VC (distal colon blood flow [2]; 15 min): 58.32%
Rate of increase in VC (distal colon blood flow [2]; 30 min): 61.20%
Rate of increase in VC (distal colon blood flow [2]; 45 min): 53.07%
Rate of increase in VC (distal colon blood flow [2]; 60 min): 42.55%
Rate of increase in VC (distal colon blood flow [2]; 75 min): 46.68%
Rate of increase in VC (distal colon blood flow [2]; 90 min): 32.92%
Blood flow increase (in words) (distal colon blood flow [2]; Example 5, administration into the colon): induced an increase in blood flow
Time of peak increase in blood flow (distal colon blood flow [2]; after administration into the colon): 30 min

CC(C)=CCC[C@](C)(O[C@@H]1O[C@H](CO[C@@H]2O[C@H](CO)[C@@H](O)[C@H](O)[C@H]2O)[C@@H](O)[C@H](O)[C@H]1O)[C@H]1CC[C@]2(C)[C@@H]1[C@H](O)C[C@@H]1[C@@]3(C)CC[C@H](O[C@@H]4O[C@H](CO)[C@@H](O)[C@H](O)[C@H]4O[C@@H]4O[C@H](CO)[C@@H](O)[C@H](O)[C@H]4O)C(C)(C)[C@@H]3CC[C@]12C [Ginsenoside Rb1, ginsenoside Rb1]
Rate of increase in VC (distal colon blood flow [1]; 15 min): 11.72%
Rate of increase in VC (distal colon blood flow [1]; 30 min): 18.87%
Rate of increase in VC (distal colon blood flow [1]; 45 min): 60.21%
Rate of increase in VC (distal colon blood flow [1]; 60 min): 26.20%
Rate of increase in VC (distal colon blood flow [1]; 75 min): 40.81%
Rate of increase in VC (distal colon blood flow [1]; 90 min): 19.98%
